We go through seven compounds from US4711958A, “Morpholine containing amino acid derivatives” (priority 1986, dated 1987).

Each structure is given as a SMILES string.

The subject of one assay is plasma renin. Kind of assay: Renin inhibitory effect in plasma on common marmoset (high renin state, oral). Type of assay: in vivo. The conditions noted are these: oral 30 mg/kg. On the procedure:
Renin inhibitory effect in plasma on common marmoset
The experiment was carried out by using common marmoset as described in K. G. Hofbauer et al., Clinical and Experimental hypertension, Vol. A5, Nos. 7 & 8 (1983), pages 1237-1247.
Furosemide was administered orally three times to common marmoset having a lower salt diet at 15 mg per Kilogram per day every other day to create a high renin state. The experiment was carried out on the third day after the last furosemide dose.
Conscious female and male marmosets weighing 335 to 375 g were placed into small restraining chair, and by using a catheter into the femoral artery, blood collecting was carried out at intervals of 20, 40, 60, 120, 180 and 300 minutes.
Collected blood samples were centrifuged at 1200 g for 15 minutes at 4° C. Two hundred μl of the plasma was taken up and incubated for 60 minutes at 37° C., and the plasma renin activity was measured by radioimmunoassay using renin riabead kit (DAINABOT).
Compound A of this invention was dissolved in dilute hydrochloric acid, and administered orally at single dose of 30 mg/kg using catheter.

In assay [1] the target is T1, renin (Homo sapiens, UniProt P00797).
T1 sequence (P00797 67-406): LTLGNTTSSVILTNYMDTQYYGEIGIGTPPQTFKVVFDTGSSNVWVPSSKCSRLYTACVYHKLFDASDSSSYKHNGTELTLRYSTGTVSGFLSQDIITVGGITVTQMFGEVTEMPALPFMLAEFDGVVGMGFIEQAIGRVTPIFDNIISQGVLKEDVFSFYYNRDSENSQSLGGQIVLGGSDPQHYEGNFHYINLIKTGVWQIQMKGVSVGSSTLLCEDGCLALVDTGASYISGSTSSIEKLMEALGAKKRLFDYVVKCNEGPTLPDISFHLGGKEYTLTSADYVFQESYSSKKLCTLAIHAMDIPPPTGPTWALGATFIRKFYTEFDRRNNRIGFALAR
Kind of assay: Inhibitory effect on human renin-sheep renin substrate reaction system in vitro. Type of assay: biochemical. As to conditions: pH 7.4, 37° C., 15 minutes, read-out: IC50 (molar concentration producing a 50% inhibition). On the procedure: Inhibitory effect on human renin-sheep renin substrate reaction system in vitro
The mixture was incubated for 15 minutes on a water bath at 37° C., and the reaction mixture was allowed to stand for 5 minutes on a water bath at 100° C. to stop the reaction. After cooling, 200 μl of the solution was taken up and the amount of angiotensin I produced by the addition of renin was determined by radioimmunoassay using renin riabead kit (DAINABOT).
The inhibitory effect was calculated by the following equation.
As a control, the same procedure as above was carried out by using 50 μl of dimethyl sulfoxide alone in place of the 50 μl of dimethyl sulfoxide solution containing an amino acid compound of the present invention. [formula]

Assay [2] addresses T1, renin. In words: Renin inhibitory effect in a human high renin plasma. The conditions noted are these: pH 7.0, 37° C., 60 minutes, read-out: IC50 (molar concentration producing a 50% inhibition). More on the design: 500 μl of human high renin plasma; from tissue; host or cells: human high renin plasma. It is filed as biochemical. The protocol: Renin inhibitory effect in a human high renin plasma
A mixture of 350 μl of a 0.5 M phosphate buffer (pH 7.0) containing 14 mM EDTA.2Na and a 0.3% neomycin sulfate, 50 μl of a 20 mM L-phenylalanyl-L-alanyl-L-proline as an angiotensin converting enzyme inhibitor and 100 μl of dimethyl sulfoxide solution containing an amino acid derivative of the present invention was added to 500 μl of human high renin plasma. Two hundred μl of the mixture was placed on an ice bath, at 4° C., and remaining mixture (800 μl ) was incubated for 60 minutes at 37° C. on a water bath. Two hundred μl of the incubated remaining mixture was chilled immediately on an ice bath, and the amount (A) of angiotensin I produced was determined by radioimmunoassay using renin riabead kit (DAINABOT).
The amount (B) of angiotensin I in the mixture placed on an ice bath at 4° C. was also determined by radioimmunoassay.
As a control, the same procedure as above was carried out by using 100 μl of dimethyl sulfoxide alone in place of 100 μl of dimethyl sulfoxide solution containing an amino acid compound of the present invention.
The net amount was estimated as the difference between A and B.
The inhibitory effect was calculated by the following equation. [formula]

Assay [3] is described as follows: Hypotensive effect in marmoset (high renin state, oral). It is filed as in vivo, common marmoset. The conditions noted are these: conscious male marmoset, oral 30 mg/kg, tail cuff, Control 89.3. On the procedure:
Hypotensive effect in marmoset
The experiment was carried out by using common marmoset as described in K. G. Hofbauer et al., Clinical and Experimental Hypertension, Vol. A5, Nos. 7 & 8 (1983), pages 1237-1247.
Furosemide was administered orally three times to common marmoset at 15 mg per kilogram per day every other day to create a high renin state. Blood pressure of conscious marmoset was measured on the third day after the last furosemide dose.
A conscious male marmoset weighing 460 g was placed into small restraining chair. Blood pressure was measured on the tail cuff method using pretismograph. Compound C was dissolved in dilute hydrochloric acid, and administered orally at 30 mg/kg by using a catheter.

With `CC(C)OC(=O)C(O)[C@H](CC1CCCCC1)NC(=O)[C@H](Cc1c[nH]cn1)NC(=O)C(CC(=O)N1CCOCC1)Cc1cccc2ccccc12` (mixture of isomers) [Compound A, (2RS, 3S)-3-{N-[2-(1-Naphthylmethyl)-3-(morpholinocarbonyl)propionyl]-L-histidyl)amino-4-cyclohexyl-2-hydroxybutyric acid isopropyl ester], the “Inhibition percent of plasma renin activity” value in the assay with plasma renin (20 minutes after administration, 3 animals) was found to be 68.2%; in the assay with plasma renin (40 minutes after administration, 3 animals), 88.1%; with plasma renin (60 minutes after administration, 3 animals), 87.1%; in the assay on plasma renin (120 minutes after administration, 3 animals), 88.8%; in the assay with plasma renin (180 minutes after administration, 3 animals), 79.6%; in the assay on plasma renin (300 minutes after administration, 2 animals) it was 53.4%. For the same compound, the IC50 at renin [1] was determined as 6.5 nM; on renin [2] it was 10 nM.

As for `CC(C)CNC(=O)C(O)[C@H](CC1CCCCC1)NC(=O)[C@H](Cc1c[nH]cn1)NC(=O)C(CC(=O)N1CCOCC1)Cc1cccc2ccccc12` (mixture of isomers) [Compound B, (2RS, 3S)-3-{N-[2-(1-Naphthylmethyl)-3-(morpholinocarbonyl)propionyl]-L-histidyl}amino-4-cyclohexyl-2-hydroxy-N-isobutylbutyramide], the IC50 stood at 290 nM on renin [1] and 260 nM on renin [2].

On to `O=C(N[C@@H](Cc1c[nH]cn1)C(=O)N[C@@H](CC1CCCCC1)C(O)C(=O)OC1CCCC1)C(CC(=O)N1CCOCC1)Cc1cccc2ccccc12` (mixture of isomers) [Compound C, (2RS, 3S)-3-{N-[2-(1-Naphthylmethyl)-3-(morpholinocarbonyl)propionyl]-L-histidyl)amino-4-cyclohexyl-2-hydroxybutyric acid cyclopentyl ester], for which the Blood pressure turned out to be 78.0 mmHg in assay [3] (0.5 hours after administration); 73.3 mmHg in assay [3] (1 hour after administration); 66.0 mmHg in assay [3] (2 hours after administration); 71.0 mmHg in assay [3] (3 hours after administration); 71.8 mmHg in assay [3] (5 hours after administration); 71.7 mmHg in assay [3] (7 hours after administration). Further, the IC50 at renin [1] came to 2.5 nM; at renin [2] it was 6.8 nM.

For the compound `O=C(N[C@@H](Cc1c[nH]cn1)C(=O)N[C@@H](CC1CCCCC1)C(O)C(=O)OC1CCCCC1)C(CC(=O)N1CCOCC1)Cc1cccc2ccccc12` (mixture of isomers) [Compound E, (2RS, 3S)-3-{N-[2-(1-Naphthylmethyl)-3-(morpholinocarbonyl)propionyl]-L-histidyl}amino-4-cyclohexyl-2-hydroxybutyric acid cyclohexyl ester], the figures for the IC50 at renin [1] and at renin [2] were 6.6 nM and 30 nM, respectively.

In the case of `O=C(N[C@@H](Cc1c[nH]cn1)C(=O)N[C@@H](CC1CCCCC1)C(O)C(=O)N1CCOCC1)C(CC(=O)N1CCOCC1)Cc1cccc2ccccc12` (mixture of isomers) [Compound F, 4-[(2RS, 3S)-3-{N-[2-(1-Naphthylmethyl)-3-(morpholinocarbonyl)propionyl]-L-histidyl}amino-4-cyclohexyl-2-hydroxybutyryl]morpholine], the results for the IC50 on renin [1] and on renin [2] were 370 nM and 130 nM, respectively.

As for `O=C(N[C@@H](Cc1c[nH]cn1)C(=O)N[C@@H](CC1CCCCC1)C(O)C(=O)OC(CF)CF)C(CC(=O)N1CCOCC1)Cc1cccc2ccccc12` (mixture of isomers) [Compound G, (2RS, 3S)-3-{N-[2-(1-Naphthylmethyl)-3-(morpholinocarbonyl)propionyl]-L-histidyl}amino-4-cyclohexyl-2-hydroxybutyric acid 1,3-difluoro-2-propyl ester], the results for the IC50 on renin [1] and on renin [2] were 2.9 nM and 4.1 nM, respectively.

As to `CC(C)OC(=O)[C@H](O)[C@H](CC1CCCCC1)NC(=O)[C@H](Cc1c[nH]cn1)NC(=O)C(CC(=O)N1CCOCC1)Cc1cccc2ccccc12` (stereo partly drawn) [Compound D, (2R, 3S)-3-{N-[2-(1-Naphthylmethyl)-3-(morpholinocarbonyl)propionyl]-L-histidyl}amino-4-cyclohexyl-2-hydroxybutyric acid isopropyl ester], the results for the IC50 on renin [1] and on renin [2] were 2.4 nM and 4.7 nM, respectively.
